# Data published in patent publication US20260256792A1, “TREATMENT OF CHRONIC SPONTANEOUS URTICARIA BY ADMINISTERING (R)-2-[3-[4-AMINO-3-(2-FLUORO-4-PHENOXY-PHENYL)PYRAZOLO[3,4-D]PYRIMIDIN-1-YL]PIPERIDINE-1-CARBONYL]-4-METHYL-4-[4-(OXETAN-3-YL)PIPERAZIN-1-YL]PENT-2-ENENITRILE” (priority 2023, published 2026).
# Tested on: moderate-to-severe chronic spontaneous urticaria (CSU)
# Assay: Phase 2 CSU study: hives severity score over 7 days (HSS7)
# Type: in vivo, human
# Parameters: key to HSS7 Change from baseline, Median / HSS7, Median / HSS7, Max / HSS7 Change from baseline, Q1 / HSS7 Change from baseline, Q3 / HSS7 Change from baseline, Max: 7-day sum of daily hive scores, each 0 = none to 3 = >50 hives
# Settings: 400 mg BID
# Source text: The study comprises a 12 week, randomized, double-blind, placebo-controlled, multi-center, dose-ranging efficacy and safety phase, followed by a 40 week open label extension (OLE) phase (see FIG. 1).
# The study consists of three phases and an optional OLE phase.
# The UAS is a validated PRO measure. The daily UAS is the sum of the daily Hive Severity Score (HSS, ranging from 0=None to 3=more than 50 hives) and the daily Itch Severity Score (ISS, ranging from 0=None to 3=intense), the 2 key urticaria signs and symptoms which are wheals and itch. The daily UAS scores range from 0 to 6 point/day. Daily UAS scores are summed over 7-day period to create the UAS7, ranging from 0 to 42, and are composed of the HSS7 and ISS7 components. […] Patients were to complete the UAS using the e-diary. The e-diary was to be used once daily on the same time of each day recording of participant's answers to the urticaria activity score over 7 days (UAS7) questionnaire. For participants who entered the OLE phase, their answers to the UAS7 questionnaire were also to be collected from Week 20 to Week24 and from Week 48 to Week 52.
# The following secondary endpoints were to be analyzed using the same approach as for the primary endpoint: • Change from baseline in UAS7 at Week 4 • Change from baseline in UAS7 at Week 12 (for US and US reference countries) • Change from baseline in ISS7 at Week 12 (except US and US reference countries) • Change from baseline in HSS7 at Week 12
# [1] = Omalizumab-Naïve Population, last block under Week 12, double-blind period, WOCF imputation
# [2] = Week 1, Omalizumab-Naïve Population
# [3] = Week 2, Omalizumab-Naïve Population
# [4] = Week 3, Omalizumab-Naïve Population
# [5] = Week 4, Omalizumab-Naïve Population
# [6] = Week 5, Omalizumab-Naïve Population
# [7] = Week 6, Omalizumab-Naïve Population
# [8] = Week 7, Omalizumab-Naïve Population
# [9] = Week 8, Omalizumab-Naïve Population
smiles,measurement,setting,value
"CC(C)(C=C(C#N)C(=O)N1CCC[C@@H](n2nc(-c3ccc(Oc4ccccc4)cc3F)c3c(N)ncnc32)C1)N1CCN(C2COC2)CC1 [rilzabrutinib, (R)-2-[3-[4-amino-3-(2-fluoro-4-phenoxy-phenyl)pyrazolo[3,4-d]pyrimidin-1-yl]piperidine-1-carbonyl]-4-methyl-4-[4-(oxetan-3-yl)piperazin-1-yl]pent-2-enenitrile]","HSS7, Max",[1],21.0
same,"HSS7, Min",[1],0.0
same,"HSS7 Change from baseline, Max",[1],0.0
same,"HSS7 Change from baseline, Mean (SD)",[1],−7.80 (6.87)
same,"HSS7 Change from baseline, Median",[1],−5.00
same,"HSS7 Change from baseline, Min",[1],−16.0
same,"HSS7 Change from baseline, Q1",[1],−14.00
same,"HSS7 Change from baseline, Q3",[1],−4.00
same,"HSS7 Percent change from baseline, Max",[1],0.0%
same,"HSS7 Percent change from baseline, Mean (SD)",[1],−53.67 (44.85) percent
same,"HSS7 Percent change from baseline, Median",[1],−41.67%
same,"HSS7 Percent change from baseline, Min",[1],−100.0%
same,"HSS7 Percent change from baseline, Q1",[1],−100.00%
same,"HSS7 Percent change from baseline, Q3",[1],−26.67%
same,HSS7 % Change difference for rilzabrutinib vs.placebo LS Mean (95% CI),"Week 1, ITT Population",−25.04 %
same,HSS7 % Change from baseline LS Mean (SE),"Week 1, ITT Population",−33.74 (5.55) %
same,HSS7 Change difference for rilzabrutinib vs.placebo LS Mean (95% CI),"Week 1, ITT Population","−2.95 (−5.36, −0.55)"
same,HSS7 Change from baseline LS Mean (SE),"Week 1, ITT Population",−4.79 (0.75)
same,HSS7 Postbaseline Mean (SD),"Week 1, ITT Population",9.32 (5.77)
same,HSS7 % Change difference for rilzabrutinib vs.placebo LS Mean (95% CI),[2],−27.07 %
same,HSS7 % Change from baseline LS Mean (SE),[2],−34.51 (5.97) %
same,HSS7 Change difference for rilzabrutinib vs.placebo LS Mean (95% CI),[2],"−3.10 (−5.66, −0.53)"
same,HSS7 Change from baseline LS Mean (SE),[2],−4.73 (0.80)
same,HSS7 Postbaseline Mean (SD),[2],9.26 (5.76)
same,HSS7 Postbaseline Mean (SD),"Week 1, Omalizumab-Naïve Population with Outlier Removed from Analysis",9.26 (5.76)
same,HSS7 % Change difference for rilzabrutinib vs.placebo LS Mean (95% CI),"Week 2, ITT Population",−18.39 %
same,HSS7 % Change from baseline LS Mean (SE),"Week 2, ITT Population",−34.94 (5.70) %
same,HSS7 Change difference for rilzabrutinib vs.placebo LS Mean (95% CI),"Week 2, ITT Population","−2.23 (−4.31, −0.14)"
same,HSS7 Change from baseline LS Mean (SE),"Week 2, ITT Population",−5.15 (0.79)
same,HSS7 Postbaseline Mean (SD),"Week 2, ITT Population",9.11 (5.66)
same,HSS7 % Change difference for rilzabrutinib vs.placebo LS Mean (95% CI),[3],−19.53 %
same,HSS7 % Change from baseline LS Mean (SE),[3],−34.80 (6.07) %
same,HSS7 Postbaseline Mean (SD),[3],9.27 (5.49)
same,HSS7 Postbaseline Mean (SD),"Week 2, Omalizumab-Naïve Population with Outlier Removed from Analysis",9.27 (5.49)
same,HSS7 % Change difference for rilzabrutinib vs.placebo LS Mean (95% CI),"Week 3, ITT Population",−19.09 %
same,HSS7 % Change from baseline LS Mean (SE),"Week 3, ITT Population",−38.24 (5.88) %
same,HSS7 Change difference for rilzabrutinib vs.placebo LS Mean (95% CI),"Week 3, ITT Population","−2.14 (−4.31, 0.04)"
same,HSS7 Change from baseline LS Mean (SE),"Week 3, ITT Population",−5.64 (0.82)
same,HSS7 Postbaseline Mean (SD),"Week 3, ITT Population",8.42 (6.15)
same,HSS7 % Change difference for rilzabrutinib vs.placebo LS Mean (95% CI),[4],−20.68 %
same,HSS7 % Change from baseline LS Mean (SE),[4],−38.38 (6.33) %
same,HSS7 Postbaseline Mean (SD),[4],8.55 (6.09)
same,HSS7 Postbaseline Mean (SD),"Week 3, Omalizumab-Naïve Population with Outlier Removed from Analysis",8.55 (6.09)
same,HSS7 % Change difference for rilzabrutinib vs.placebo LS Mean (95% CI),"Week 4, ITT population",−24.40 %
same,HSS7 % Change from baseline LS Mean (SE),"Week 4, ITT population",−43.10 (6.02) %
same,HSS7 Change difference for rilzabrutinib vs.placebo LS Mean (95% CI),"Week 4, ITT population","−2.71 (−4.92, −0.50)"
same,HSS7 Change from baseline LS Mean (SE),"Week 4, ITT population",−6.16 (0.83)
same,HSS7 Postbaseline Mean (SD),"Week 4, ITT population",7.50 (6.18)
same,HSS7 % Change difference for rilzabrutinib vs.placebo LS Mean (95% CI),[5],−27.23 %
same,HSS7 % Change from baseline LS Mean (SE),[5],−43.11 (6.45) %
same,HSS7 Postbaseline Mean (SD),[5],7.60 (6.00)
same,HSS7 Postbaseline Mean (SD),"Week 4, Omalizumab-Naïve Population with Outlier Removed from Analysis",7.60 (6.00)
same,HSS7 % Change difference for rilzabrutinib vs.placebo LS Mean (95% CI),"Week 5, ITT Population",−12.25 %
same,HSS7 % Change from baseline LS Mean (SE),"Week 5, ITT Population",−41.40 (5.88) %
same,HSS7 Change difference for rilzabrutinib vs.placebo LS Mean (95% CI),"Week 5, ITT Population","−1.29 (−3.57, 0.99)"
same,HSS7 Change from baseline LS Mean (SE),"Week 5, ITT Population",−5.93 (0.86)
same,HSS7 Postbaseline Mean (SD),"Week 5, ITT Population",7.91 (6.94)
same,HSS7 % Change difference for rilzabrutinib vs.placebo LS Mean (95% CI),[6],"−9.42 (−26.13, 7.29) %"
same,HSS7 % Change from baseline LS Mean (SE),[6],−39.98 (6.23) %
same,HSS7 Postbaseline Mean (SD),[6],8.34 (6.75)
same,HSS7 Postbaseline Mean (SD),"Week 5, Omalizumab-Naïve Population with Outlier Removed from Analysis",8.34 (6.75)
same,HSS7 % Change difference for rilzabrutinib vs.placebo LS Mean (95% CI),"Week 6, ITT Population",−15.72 %
same,HSS7 % Change from baseline LS Mean (SE),"Week 6, ITT Population",−39.79 (6.64) %
same,HSS7 Change difference for rilzabrutinib vs.placebo LS Mean (95% CI),"Week 6, ITT Population","−1.64 (−4.07, 0.79)"
same,HSS7 Change from baseline LS Mean (SE),"Week 6, ITT Population",−5.90 (0.92)
same,HSS7 Postbaseline Mean (SD),"Week 6, ITT Population",7.89 (6.65)
same,HSS7 % Change difference for rilzabrutinib vs.placebo LS Mean (95% CI),[7],−15.99 %
same,HSS7 % Change from baseline LS Mean (SE),[7],−40.02 (7.13) %
same,HSS7 Postbaseline Mean (SD),[7],8.17 (6.62)
same,HSS7 Postbaseline Mean (SD),"Week 6, Omalizumab-Naïve Population with Outlier Removed from Analysis",8.17 (6.62)
same,HSS7 % Change difference for rilzabrutinib vs.placebo LS Mean (95% CI),"Week 7, ITT Population",−22.31 %
same,HSS7 % Change from baseline LS Mean (SE),"Week 7, ITT Population",−46.27 (6.01) %
same,HSS7 Change difference for rilzabrutinib vs.placebo LS Mean (95% CI),"Week 7, ITT Population","−2.71 (−4.98, −0.44)"
same,HSS7 Change from baseline LS Mean (SE),"Week 7, ITT Population",−6.79 (0.86)
same,HSS7 Postbaseline Mean (SD),"Week 7, ITT Population",7.01 (6.25)
same,HSS7 % Change difference for rilzabrutinib vs.placebo LS Mean (95% CI),[8],−19.88 %
same,HSS7 % Change from baseline LS Mean (SE),[8],−45.57 (6.48) %
same,HSS7 Postbaseline Mean (SD),[8],7.34 (6.12)
same,HSS7 Postbaseline Mean (SD),"Week 7, Omalizumab-Naïve Population with Outlier Removed from Analysis",7.34 (6.12)
same,HSS7 % Change difference for rilzabrutinib vs.placebo LS Mean (95% CI),"Week 8, ITT population",−23.44 %
same,HSS7 % Change from baseline LS Mean (SE),"Week 8, ITT population",−52.52 (6.33) %
same,HSS7 Change difference for rilzabrutinib vs.placebo LS Mean (95% CI),"Week 8, ITT population","−2.74 (−5.15, −0.33)"
same,HSS7 Change from baseline LS Mean (SE),"Week 8, ITT population",−7.49 (0.91)
same,HSS7 Postbaseline Mean (SD),"Week 8, ITT population",6.41 (6.73)
same,HSS7 % Change difference for rilzabrutinib vs.placebo LS Mean (95% CI),[9],−25.21 %
same,HSS7 % Change from baseline LS Mean (SE),[9],−53.21 (6.86) %
same,HSS7 Postbaseline Mean (SD),[9],6.66 (6.70)
same,HSS7 Postbaseline Mean (SD),"Week 8, Omalizumab-Naïve Population with Outlier Removed from Analysis",6.66 (6.70)
same,HSS7 % Change difference for rilzabrutinib vs.placebo LS Mean (95% CI),"Week 9, ITT Population",−27.61 %
same,HSS7 % Change from baseline LS Mean (SE),"Week 9, ITT Population",−51.53 (6.66) %
same,HSS7 Change difference for rilzabrutinib vs.placebo LS Mean (95% CI),"Week 9, ITT Population","−3.04 (−5.57, −0.51)"
same,HSS7 Change from baseline LS Mean (SE),"Week 9, ITT Population",−7.16 (0.96)
same,HSS7 Postbaseline Mean (SD),"Week 9, ITT Population",6.69 (7.49)
same,HSS7 Postbaseline Mean (SD),"Week 9, Omalizumab-Naïve Population",7.01 (7.58)
same,HSS7 Postbaseline Mean (SD),"Week 9, Omalizumab-Naïve Population with Outlier Removed from Analysis",7.01 (7.58)
same,HSS7 % Change difference for rilzabrutinib vs.placebo LS Mean (95% CI),"Week 10, ITT Population",−24.54 %
same,HSS7 % Change from baseline LS Mean (SE),"Week 10, ITT Population",−52.53 (6.82) %
same,HSS7 Change difference for rilzabrutinib vs.placebo LS Mean (95% CI),"Week 10, ITT Population","−2.72 (−5.32, −0.11)"
same,HSS7 Change from baseline LS Mean (SE),"Week 10, ITT Population",−7.32 (0.99)
same,HSS7 Postbaseline Mean (SD),"Week 10, ITT Population",6.77 (7.18)
same,HSS7 Postbaseline Mean (SD),"Week 10, Omalizumab-Naïve Population",7.05 (7.27)
same,HSS7 Postbaseline Mean (SD),"Week 10, Omalizumab-Naïve Population with Outlier Removed from Analysis",7.05 (7.27)
same,HSS7 % Change difference for rilzabrutinib vs.placebo LS Mean (95% CI),"Week 11, ITT Population",−22.60 %
